# Assays:
# human SSPC = test: Col2 and α-SMA expression in human SSPC treated with TGF-β2 (western blot); assay type: cell-based; conditions: in the presence of TGF-β2 (10 ng/ml), 1 mM atropine, 5 mM ketorolac, 1 mM diclofenac
# Protocol: Different concentrations of TGF-β2 were added into 12-wells of SSPCs. After 24 hrs, the images of SSPC morphology were recorded. The total RNA was extracted for further analysis. A chamber slide culture for the immunofluorescence study was performed under the same condition.
# The total protein from the sclera was extract by using RIPA protein extraction buffer. After homogenization of scleral tissue, the sample was centrifuged and the supernatant was collected. The protein concentration of each sample was measured using a BCA™ protein Assay Kit (Bio-Rad). Scleral protein samples were standardized and electrophoresed on 10% SDS-PAGE gel, then transferred to a polyvinylidene fluoride transfer membrane (Immun-Blot PVDF Membrane, BIO-RAD) at 21 V for 1 h. Membranes were blocked for 1 h at room temperature with 5% dry milk in PBS with 0.1% Tween and incubated at 4° C. overnight with primary antibodies. Membranes were washed and incubated with 1:10,000 goat anti-mouse or anti-rabbit IgG antibodies conjugated to horseradish peroxidase (Santa Cruz) for 1 h at room temperature and washed again. Membranes were developed by chemiluminescence with the reagent Lumigen TMA-6 (GE Healthcare UK limited, Buckinghumshire, UK) and images were captured with the LAS-4000 imaging system (Fujifilm, Tokyo, Japan). Protein bands were quantified using ImageJ software.
# An in vitro study examining the effect of an anti-muscarinic agent and NSAID on Col2 and α-SMA expressions was performed using human SSPC.
# TNF-α = test: Expression of inflammation markers in choroids of FDM mice (real-time PCR); assay type: in vivo; conditions: FDM eye of mice, one ketorolac eye drop once a day
# Protocol: Total RNA from SSPCs or the choroid tissue in each eye was isolated using Trizol (Invitrogen, Carlsbad, Calif.) accordingly to the manufacture's protocol. qRT-PCR analysis was carried out using the iScript one-step RT-PCR kit with SYBR Green (Bio-Rad, Hercules, USA) on an ABI PRISM 7900 HT sequence detection system (Applied Biosystems, Foster City, USA), according to the manufacturer's instructions. […] Ct values of the control gene were subtracted from those of α-SMA and Col2 to provide a semiquantitative analysis, and fold change relative to no treatment was assessed.
# On the day of the experiment (postnatal day [P] 21˜24), C57BL/6J mice were anesthetized by intraperitoneal injection of ketamine (90 mg/kg) and xylazine (10 mg/kg), and the diffuser eye patches were sutured to the skin around the right eye whereas the left eye served as a control. […] The mice were recovered and monitored on a warming pad until they were fully mobile. […]
# An in vivo study evaluating the expression of inflammation markers in the choroid was evaluated using FDM Mice. […]
# SSPCs = test: α-SMA and Col2 expression in SSPCs treated with TGF-β2, atropine/ketorolac combination; assay type: cell-based, mouse; conditions: in the presence of TGF-β2 10 ng/ml, 0.5 mM atropine, 2.5 mM ketorolac, or combination
# Protocol: In brief, sclera from the mouse was obtained and was carefully dissected away from limbus and optic disc under a dissection microscope. After retina and choroid tissues were removed, the scleral tissue was cut into small pieces and digested with 1.5 mg/ml collagenase type I (Worthington Biochemical, Lakewood, USA) and 2 mg/ml of dispase (Roche, Basel, Switzerland) in PBS for 1 h at 37° C. to release individual cells. Individual cells were cultured in α-MEM (Invitrogen, Carlsbad, USA), supplemented with 20% lot-selected FBS (Equitech-Bio, Kerrville, USA), glutamine, penicillin/streptomycin and 100 mM 2-mercaptoethanol (Invitrogen) for 8 to 10 days at 5% CO2, 37° C.
# myopic patient = test: Treating a myopia subject with NSAID (ketorolac ophthalmic solution); assay type: in vivo, human; conditions: one patient, both eyes, after three months of about 0.5% ketorolac, one drop at night
# Protocol: The dose of ketorolac was about 0.5% weight ketorolac per unit dose (about 0.05 to 0.5 ml) and the affected eye was given one drop (about 0.05 to 0.5 ml) of ketorolac ophthalmic solution at night.
# SSPC = test: Effect of TGF-β2 treatment on α-SMA and Col2 gene expression in SSPC (quantitative Real Time-PCR); assay type: cell-based, mouse; conditions: 0.1 to 10 ng/ml TGF-β2 for 24 hrs, dose dependent
# Protocol: The SSPCs were isolated and cultured as previously described by CL Tsai et al. (Identification of multipotent stem/progenitor cells in murine sclera. Invest Ophthalmol Vis Sci 52:5481-5487, 2011). In brief, sclera from the mouse was obtained and was carefully dissected away from limbus and optic disc under a dissection microscope. After retina and choroid tissues were removed, the scleral tissue was cut into small pieces and digested with 1.5 mg/ml collagenase type I (Worthington Biochemical, Lakewood, USA) and 2 mg/ml of dispase (Roche, Basel, Switzerland) in PBS for 1 h at 37° C. to release individual cells. […]
# Different concentrations of TGF-β2 were added into 12-wells of SSPCs. After 24 hrs, the images of SSPC morphology were recorded. […]
# Total RNA from SSPCs or the choroid tissue in each eye was isolated using Trizol (Invitrogen, Carlsbad, Calif.) accordingly to the manufacture's protocol. qRT-PCR analysis was carried out using the iScript one-step RT-PCR kit with SYBR Green (Bio-Rad, Hercules, USA) on an ABI PRISM 7900 HT sequence detection system (Applied Biosystems, Foster City, USA), according to the manufacturer's instructions. […] Ct values of the control gene were subtracted from those of α-SMA and Col2 to provide a semiquantitative analysis, and fold change relative to no treatment was assessed. […]
Molecule,expression of Col2 (human SSPC),expression of α-SMA (human SSPC),level of TNF-α in the choroids (TNF-α),expression of Col2 (SSPCs),expression of α-SMA (SSPCs),myopia progression (myopic patient),α-SMA gene expression (SSPC; p<0.0001),Col2 gene expression (SSPC; p=0.011)
CN1[C@@H]2CC[C@H]1C[C@@H](OC(=O)C(CO)c1ccccc1)C2 (stereo partly drawn) [atropine],suppressed,suppressed,–,–,–,–,–,–
O=C(O)Cc1ccccc1Nc1c(Cl)cccc1Cl [diclofenac],suppressed,suppressed,–,–,–,–,–,–
O=C(c1ccccc1)c1ccc2n1CCC2C(=O)O (stereo not drawn) [ketorolac],suppressed,suppressed,suppressed,reduced,reduced,no myopia progression,–,–
"TGF-β2: Transforming growth factor beta 2 (SEQ ID NO:5), ocular chondrogenic protein used to induce α-SMA and Col2 in SSPC (protein, listed as Homo sapiens, Transforming growth factor beta-2 (TGF-beta-2)) MHYCVLSAFLILHLVTVALSLSTCSTLDMDQFMRKRIEAIRGQILSKLKLTSPPEDYPEPEEVPPEVISIYNSTRDLLQEKASRRAAACERERSDEEYYAKEVYKIDMPPFFPSEAIPPTFYRPYFRIVRFDVSAMEKNASNLVKAEFRVFRLQNPKARVPEQRIELYQILKSKDLTSPTQRYIDSKVVKTRAEGEWLSFDVTDAVHEWLHHKDRNLGFKISLHCPCCTFVPSNNYIIPNKSEELEARFAGIDGTSTYTSGDQKTIKSTRKKNSGKTPHLLLMLLPSYRLESQQTNRRKKRALDAAYCFRNVQDNCCLRPLYIDFKRDLGWKWIHEPKGYNANFCAGACPYLWSSDTQHSRVLSLYNTINPEASASPCCVSQDLEPLTILYYIGKTPKIEQLSNMIVKSCKCS",–,–,–,–,–,–,statistically significant increase,statistically significant increase
